Data published in ChEMBL document CHEMBL1201862, “PubChem BioAssay data set” (2004).
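These data come from cells grown in 96-well plates and exposed to compound for 48 hours at five concentrations. GI50: concentration for 50% inhibition of growth.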 Activity calls are given as the source filed them. Cut-off read from the data, not from the text of the source: active = GI50 up to about 1.1 µM and inactive = higher.

How the values were obtained:
Test in all cases: inhibition of tumour cell growth, NCI panel, 48 h
OVCAR-8 = system: OVCAR-8
IGROV-1 = system: IGROV-1
LOX IMVI = system: LOX IMVI
MDA-MB-231 = system: MDA-MB-231
NCI-H460 = system: NCI-H460
MDA-MB-435 = system: MDA-MB-435
HCT-116 = system: HCT-116
SK-MEL-5 = system: SK-MEL-5
T47D = system: T47D
SN12C = system: SN12C
A498 = system: A498
HT-29 = system: HT-29
SNB-19 = system: SNB-19
CAKI-1 = system: CAKI-1
CCRF-CEM = system: CCRF-CEM
OVCAR-5 = system: OVCAR-5
A549 = system: A549
EKVX = system: EKVX
OVCAR-3 = system: OVCAR-3
SF-295 = system: SF-295
SK-MEL-2 = system: SK-MEL-2
HCT-15 = system: HCT-15
HOP-92 = system: HOP-92
SK-OV-3 = system: SK-OV-3
RXF 393 = system: RXF 393
K562 = system: K562
COLO 205 = system: COLO 205
U-251 = system: U-251
UO-31 = system: UO-31
NCI-H522 = system: NCI-H522
NCI-H23 = system: NCI-H23
PC-3 = system: PC-3
MOLT-4 = system: MOLT-4
ACHN = system: ACHN
NCI/ADR-RES = system: NCI/ADR-RES
UACC-257 = system: UACC-257
Malme-3M = system: Malme-3M
UACC-62 = system: UACC-62
Hs-578T = system: Hs-578T
NCI-H226 = system: NCI-H226
KM12 = system: KM12
DU-145 = system: DU-145
HL-60 = system: HL-60
786-0 = system: 786-0
HOP-62 = system: HOP-62
MDA-N = system: MDA-N
SW-620 = system: SW-620
M14 = system: M14
RPMI-8226 = system: RPMI-8226
TK-10 = system: TK-10
SNB-75 = system: SNB-75
SK-MEL-28 = system: SK-MEL-28
SF-268 = system: SF-268
BT-549 = system: BT-549
SR = system: SR
SF-539 = system: SF-539
MCF7 = system: MCF7
HCC 2998 = system: HCC 2998
OVCAR-4 = system: OVCAR-4

With `CC(C)C[C@H]1[C@@H](OCc2ccccc2)COS(=O)N1[C@H](C)c1ccccc1` (stereo partly specified) the GI50 (OVCAR-8) was 26.7 µM (inactive), the GI50 (IGROV-1) was 8.75 µM (inactive) and the GI50 (LOX IMVI) was 13.1 µM (inactive). For the same compound, the GI50 (MDA-MB-231) was 20.2 µM (inactive), the GI50 (NCI-H460) was 15.3 µM (inactive) and the GI50 (MDA-MB-435) was 22.4 µM (inactive). For the same compound, the GI50 (HCT-116) was 4.85 µM (inactive), the GI50 (SK-MEL-5) was 10.2 µM (inactive) and the GI50 (T47D) was 9.55 µM (inactive). For the same compound, the GI50 (SN12C) was 17.5 µM (inactive), the GI50 (A498) was 22.7 µM (inactive) and the GI50 (HT-29) was 6.95 µM (inactive). For the same compound, the GI50 (SNB-19) was 30.3 µM (inactive), the GI50 (CAKI-1) was 20.2 µM (inactive) and the GI50 (CCRF-CEM) was 13.3 µM (inactive). The GI50 (OVCAR-5) was 18.9 µM (inactive), the GI50 (A549) was 17.5 µM (inactive) and the GI50 (EKVX) was 28.6 µM (inactive). For the same compound, the GI50 (OVCAR-3) was 10.2 µM (inactive), the GI50 (SF-295) was 4 µM (inactive) and the GI50 (SK-MEL-2) was 15.7 µM (inactive). The GI50 (HCT-15) was 26.9 µM, the GI50 (HOP-92) was 18.9 µM (inactive) and the GI50 (SK-OV-3) was 14.5 µM (inactive). For the same compound, the GI50 (RXF 393) was 13.1 µM (inactive), the GI50 (K562) was 5.51 µM (inactive) and the GI50 (COLO 205) was 15.2 µM (inactive). For the same compound, the GI50 (U-251) was 13.3 µM (inactive), the GI50 (UO-31) was 25.3 µM (inactive) and the GI50 (NCI-H522) was 4.33 µM (inactive). The GI50 (NCI-H23) was 26.1 µM (inactive), the GI50 (PC-3) was 5.79 µM (inactive) and the GI50 (MOLT-4) was 11.9 µM (inactive). The GI50 (ACHN) was 19.5 µM (inactive), the GI50 (NCI/ADR-RES) was 18.7 µM (inactive) and the GI50 (UACC-257) was 16 µM (inactive). For the same compound, the GI50 (Malme-3M) was 12.7 µM (inactive), the GI50 (UACC-62) was 35.1 µM (inactive) and the GI50 (Hs-578T) was 12 µM (inactive). For the same compound, the GI50 (NCI-H226) was 10.9 µM (inactive), the GI50 (KM12) was 13.2 µM (inactive) and the GI50 (DU-145) was 37.8 µM (inactive). The GI50 (HL-60) was 8.15 µM (inactive), the GI50 (786-0) was 13.9 µM (inactive) and the GI50 (HOP-62) was 19.1 µM (inactive). For the same compound, the GI50 (MDA-N) was 24.9 µM (inactive), the GI50 (SW-620) was 29.1 µM (inactive) and the GI50 (M14) was 7.66 µM (inactive). The GI50 (RPMI-8226) was 5.51 µM (inactive), the GI50 (TK-10) was 20.6 µM (inactive) and the GI50 (SNB-75) was 15.6 µM (inactive). For the same compound, the GI50 (SK-MEL-28) was 37.6 µM (inactive), the GI50 (SF-268) was 24.2 µM (inactive) and the GI50 (BT-549) was 38.1 µM (inactive).
In the case of `CCOC(=O)C1=C(C)NC(c2ccccc2)=C(C(=O)OCc2ccccc2)C1C#Cc1ccccc1` (stereo unspecified), the GI50 (OVCAR-8) is reported as > 100 µM (inactive), the GI50 (IGROV-1) is reported as 79.8 µM (inactive) and the GI50 (LOX IMVI) is reported as > 100 µM (inactive). The GI50 (SR) was > 100 µM (inactive), the GI50 (MDA-MB-435) was > 100 µM (inactive) and the GI50 (HCT-116) was > 100 µM (inactive). For the same compound, the GI50 (SK-MEL-5) was > 100 µM (inactive), the GI50 (T47D) was > 100 µM (inactive) and the GI50 (SF-539) was > 100 µM (inactive). For the same compound, the GI50 (SN12C) was 12.4 µM (inactive), the GI50 (A498) was > 100 µM (inactive) and the GI50 (SNB-19) was > 100 µM (inactive). The GI50 (CAKI-1) was 0.0675 µM (active), the GI50 (CCRF-CEM) was > 100 µM (inactive) and the GI50 (OVCAR-5) was > 100 µM (inactive). The GI50 (EKVX) was > 100 µM (inactive), the GI50 (OVCAR-3) was > 100 µM (inactive) and the GI50 (SF-295) was > 100 µM (inactive). For the same compound, the GI50 (SK-MEL-2) was > 100 µM (inactive), the GI50 (HCT-15) was > 100 µM and the GI50 (SK-OV-3) was > 100 µM (inactive). The GI50 (RXF 393) was > 100 µM (inactive), the GI50 (K562) was > 100 µM (inactive) and the GI50 (COLO 205) was > 100 µM (inactive). For the same compound, the GI50 (U-251) was > 100 µM (inactive), the GI50 (UO-31) was 58.2 µM (inactive) and the GI50 (NCI-H23) was > 100 µM (inactive). For the same compound, the GI50 (PC-3) was > 100 µM (inactive), the GI50 (MOLT-4) was > 100 µM (inactive) and the GI50 (NCI/ADR-RES) was > 100 µM (inactive). The GI50 (UACC-257) was > 100 µM (inactive), the GI50 (Malme-3M) was > 100 µM (inactive) and the GI50 (UACC-62) was > 100 µM (inactive). For the same compound, the GI50 (Hs-578T) was > 100 µM (inactive), the GI50 (MCF7) was > 100 µM (inactive) and the GI50 (NCI-H226) was > 100 µM (inactive). For the same compound, the GI50 (KM12) was > 100 µM (inactive), the GI50 (DU-145) was > 100 µM (inactive) and the GI50 (HL-60) was > 100 µM (inactive). For the same compound, the GI50 (786-0) was > 100 µM (inactive), the GI50 (HOP-62) was > 100 µM (inactive) and the GI50 (MDA-N) was 0.274 µM (active). For the same compound, the GI50 (SW-620) was > 100 µM (inactive), the GI50 (M14) was > 100 µM (inactive) and the GI50 (RPMI-8226) was > 100 µM (inactive). For the same compound, the GI50 (TK-10) was > 100 µM (inactive), the GI50 (SNB-75) was > 100 µM (inactive) and the GI50 (SF-268) was > 100 µM (inactive). For the same compound, the GI50 (BT-549) was > 100 µM (inactive).
`Nc1[nH]c(=O)[nH]c(=O)c1Cc1cccc(Cl)c1` was tested, and the GI50 (OVCAR-8) was > 100 µM (inactive), the GI50 (IGROV-1) was 56.9 µM (inactive) and the GI50 (LOX IMVI) was 54.7 µM (inactive). The GI50 (MDA-MB-231) was > 100 µM (inactive), the GI50 (NCI-H460) was 56.8 µM (inactive) and the GI50 (MDA-MB-435) was 44 µM (inactive). For the same compound, the GI50 (HCT-116) was 45.5 µM (inactive), the GI50 (T47D) was 39 µM (inactive) and the GI50 (SF-539) was > 100 µM (inactive). For the same compound, the GI50 (SN12C) was > 100 µM (inactive), the GI50 (A498) was > 100 µM (inactive) and the GI50 (HT-29) was > 100 µM (inactive). The GI50 (SNB-19) was > 100 µM (inactive), the GI50 (CAKI-1) was > 100 µM (inactive) and the GI50 (OVCAR-5) was > 100 µM (inactive). The GI50 (A549) was > 100 µM (inactive), the GI50 (EKVX) was > 100 µM (inactive) and the GI50 (OVCAR-3) was > 100 µM (inactive). The GI50 (SF-295) was > 100 µM (inactive), the GI50 (SK-MEL-2) was 71.9 µM (inactive) and the GI50 (HCT-15) was 84.9 µM. The GI50 (HOP-92) was 36.3 µM (inactive), the GI50 (SK-OV-3) was > 100 µM (inactive) and the GI50 (RXF 393) was 87.3 µM (inactive). The GI50 (K562) was 63.5 µM (inactive), the GI50 (COLO 205) was > 100 µM (inactive) and the GI50 (HCC 2998) was 56 µM (inactive). The GI50 (U-251) was > 100 µM (inactive), the GI50 (UO-31) was 26.2 µM (inactive) and the GI50 (NCI-H522) was 88.9 µM (inactive). For the same compound, the GI50 (NCI-H23) was > 100 µM (inactive), the GI50 (PC-3) was 52.7 µM (inactive) and the GI50 (ACHN) was > 100 µM (inactive). The GI50 (NCI/ADR-RES) was > 100 µM (inactive), the GI50 (UACC-257) was 51.9 µM (inactive) and the GI50 (Malme-3M) was > 100 µM (inactive). The GI50 (UACC-62) was 34.4 µM (inactive), the GI50 (Hs-578T) was 39.6 µM (inactive) and the GI50 (MCF7) was 17.9 µM (inactive). The GI50 (NCI-H226) was > 100 µM (inactive), the GI50 (KM12) was 80.5 µM (inactive) and the GI50 (786-0) was > 100 µM (inactive). The GI50 (HOP-62) was > 100 µM (inactive), the GI50 (MDA-N) was 41 µM (inactive) and the GI50 (SW-620) was 96.2 µM (inactive). The GI50 (M14) was 84.9 µM (inactive), the GI50 (OVCAR-4) was 57.9 µM (inactive) and the GI50 (RPMI-8226) was 79.6 µM (inactive). For the same compound, the GI50 (TK-10) was 63.7 µM (inactive), the GI50 (SNB-75) was 58.7 µM (inactive) and the GI50 (SK-MEL-28) was > 100 µM (inactive). The GI50 (SF-268) was 38.3 µM (inactive) and the GI50 (BT-549) was 75.2 µM (inactive).
